Reference: publication doi:10.1101/2022.10.06.511132v1, “Development of Enterovirus anti-viral agents that target the viral 2C protein” (biorxiv, 2022)

How the values were obtained:
EV-A71 Δ2C^116-329 = target: T1, EV-A71 Δ2C^116-329 (Enterovirus A71, UniProt B9VUU3); assay: malachite green ATPase assay; assay type: biochemical
T1 construct: N-terminally truncated mature protein 2C residues 116-329, cut from the genome polyprotein; N-terminal MBP tag and C-terminal His6 (kept, MBP-Δ2C-(His)6); codon-optimised synthetic gene in pMALc5x, E. coli Rosetta 2(DE3) pLysS; active as hexamer

EV-A71 [1] = assay: microbe, parasite or virus in culture; parameters: NIAID secondary assay, neutral red cytopathic effect reduction; conditions: Enterovirus A, EV71 / EVA71, read-out: EC50 µM, EV-71 neutral red
EV-A71 [2] = assay: microbe, parasite or virus in culture; parameters: NIAID secondary assay, virus yield reduction, visual titre; conditions: Enterovirus A, EV71 / EVA71, read-out: EC90 µM, EV-71 VYR
EV-68 (EV-D68) [3] = assay: microbe, parasite or virus in culture; parameters: NIAID secondary assay, neutral red cytopathic effect reduction; conditions: Enterovirus D, read-out: EC50 µM, EV-68 neutral red
EV-68 (EV-D68) [4] = assay: microbe, parasite or virus in culture; parameters: NIAID secondary assay, virus yield reduction, visual titre; conditions: Enterovirus D, read-out: EC90 µM, EV-68 VYR

T1 sequence (B9VUU3 1227-1440, stated change not applied): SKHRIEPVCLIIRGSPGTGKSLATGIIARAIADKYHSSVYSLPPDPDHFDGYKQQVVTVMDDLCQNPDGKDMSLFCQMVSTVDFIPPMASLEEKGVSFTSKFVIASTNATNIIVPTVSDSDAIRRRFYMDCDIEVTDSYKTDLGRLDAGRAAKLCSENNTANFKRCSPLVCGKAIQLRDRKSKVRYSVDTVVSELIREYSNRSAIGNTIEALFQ

| SMILES | IC50 (EV-A71 Δ2C^116-329) | EC50 (EV-A71 [1]) | EC90 (EV-A71 [2]) | EC50 (EV-68 (EV-D68) [3]) | EC90 (EV-68 (EV-D68) [4]) |
| --- | --- | --- | --- | --- | --- |
| Cc1ccc2[nH]c(-c3ccc(NC(=O)c4cccs4)cc3)nc2c1 [SJW-2C-227] | 23.4 µM | 1.7 µM | 3.2 µM | 0.52 µM | 0.59 µM |
| Cc1ccc2[nH]c(-c3ccc(NC(=O)c4ccc(C)c(C)c4)cc3)nc2c1 [SJW-2C-234] | 55 µM | – | – | – | – |
| O=C(Nc1ccc(-c2nc3cc4ccccc4cc3[nH]2)cc1)c1cccc(Br)c1 [SJW-2C-239] | 33.1 µM | – | – | – | – |
